Reference: US5262417A, “Antibacterial quinolone compounds” (The Upjohn Company, priority 1991, dated 1993)
Where two headings read alike, the source gives them in different places.

Legend:
Test in all cases: Minimum inhibitory concentration (MIC) by agar dilution
Format in all cases: cell-based
[1] = tested on: Klebsiella pneumoniae; conditions: UC12081, 20 h, read-out: Minimum Inhibitory Concentration
Method: (§1) The antibacterial activity of the compounds of Formula IC was determined by using standard testing procedures such as the determination of minimum inhibitory concentration (MIC) by agar dilution as described in "Methods for Dilution Antimicrobial Susceptibility Tests for Bacteria That Grow Aerobically" (MFT) published January 1983 by the National Committee for Clinical Laboratory Standards, 771 East Lancaster Avenue, Villanova, Pa. 19084, USA. Briefly, MIC values are determined in unsupplemented Mueller Hinton Agar (MHA). The compounds tested are diluted serially into molten MHA at 47° C. The agar is poured into petri dishes and allowed to harden. The various bacteria used for testing are grown overnight on MHA at 35° C. and transferred to Trypticase soy broth (TSB) until a turbidity of 0.5 McFarland standard is obtained. The bacteria are diluted one to 20 in TSB and inoculated on the plates (1 μl using a Steers replicator).
as §1, with “Compounds of this invention can also be tested for in vitro antimicrobial” for “The antibacterial”, “activity” for “activity of the compounds of Formula IC was determined by”, “Jan.” for “January”, “Penna.” for “Pa.”, “(1μl” for “(1 μl”, “replicator). […] The MIC test results of selected of Formula B compounds of this invention are found in Tables B2-B9.” for “replicator).”

[2] = tested on: Pseudomonas aeruginosa; conditions: Pseudomonas aeruginosa
Method: as §1
as §1, with “Compounds of this invention can also be tested for in vitro antimicrobial” for “The antibacterial”, “activity” for “activity of the compounds of Formula IC was determined by”, “Jan.” for “January”, “Penna.” for “Pa.”, “(1μl” for “(1 μl”, “replicator). […] The MIC test results of selected of Formula B compounds of this invention are found in Tables B2-B9.” for “replicator).”

[3] = tested on: Staphylococcus epidermidis; conditions: 20 h, read-out: Minimum Inhibitory Concentration
Method: as §1
as §1, with “Compounds of this invention can also be tested for in vitro antimicrobial” for “The antibacterial”, “activity” for “activity of the compounds of Formula IC was determined by”, “Jan.” for “January”, “Penna.” for “Pa.”, “(1μl” for “(1 μl”, “replicator). […] The MIC test results of selected of Formula B compounds of this invention are found in Tables B2-B9.” for “replicator).”

[4] = tested on: Acinetobacter calcoaceticus; conditions: Acinetobacter calcoaceticus, UC12170, 20 h, read-out: Minimum Inhibitory Concentration, A. calcoaceticus UC 12170, Table CI
Method: as §1
as §1, with “Compounds of this invention can also be tested for in vitro antimicrobial” for “The antibacterial”, “activity” for “activity of the compounds of Formula IC was determined by”, “Jan.” for “January”, “Penna.” for “Pa.”, “(1μl” for “(1 μl”, “replicator). […] The MIC test results of selected of Formula B compounds of this invention are found in Tables B2-B9.” for “replicator).”

[5] = tested on: Serratia marcescens; conditions: 20 h, read-out: MINIMUM INHIBITORY CONCENTRATION
Method: as §1
as §1, with “Compounds of this invention can also be tested for in vitro antimicrobial” for “The antibacterial”, “activity” for “activity of the compounds of Formula IC was determined by”, “Jan.” for “January”, “Penna.” for “Pa.”, “(1μl” for “(1 μl”, “replicator). […] The MIC test results of selected of Formula B compounds of this invention are found in Tables B2-B9.” for “replicator).”

[6] = tested on: Escherichia coli; conditions: Escherichia coli
Method: as §1
as §1, with “Compounds of this invention can also be tested for in vitro antimicrobial” for “The antibacterial”, “activity” for “activity of the compounds of Formula IC was determined by”, “Jan.” for “January”, “Penna.” for “Pa.”, “(1μl” for “(1 μl”, “replicator). […] The MIC test results of selected of Formula B compounds of this invention are found in Tables B2-B9.” for “replicator).”

[7] = tested on: Staphylococcus aureus; conditions: Staphylococcus aureus
Method: as §1
as §1, with “Compounds of this invention can also be tested for in vitro antimicrobial” for “The antibacterial”, “activity” for “activity of the compounds of Formula IC was determined by”, “Jan.” for “January”, “Penna.” for “Pa.”, “(1μl” for “(1 μl”, “replicator). […] The MIC test results of selected of Formula B compounds of this invention are found in Tables B2-B9.” for “replicator).”

[8] = tested on: Streptococcus faecalis; conditions: Enterococcus faecalis, UC9217, 20 h, read-out: Minimum Inhibitory Concentration
Method: as §1
as §1, with “Compounds of this invention can also be tested for in vitro antimicrobial” for “The antibacterial”, “activity” for “activity of the compounds of Formula IC was determined by”, “Jan.” for “January”, “Penna.” for “Pa.”, “(1μl” for “(1 μl”, “replicator). […] The MIC test results of selected of Formula B compounds of this invention are found in Tables B2-B9.” for “replicator).”

[9] = tested on: Streptococcus pneumoniae; conditions: Streptococcus pneumoniae, UC41, 20 h, read-out: Minimum Inhibitory Concentration, S. pneumoniae UC 41, Table CI
Method: as §1
as §1, with “Compounds of this invention can also be tested for in vitro antimicrobial” for “The antibacterial”, “activity” for “activity of the compounds of Formula IC was determined by”, “Jan.” for “January”, “Penna.” for “Pa.”, “(1μl” for “(1 μl”, “replicator). […] The MIC test results of selected of Formula B compounds of this invention are found in Tables B2-B9.” for “replicator).”

[10] = tested on: Streptococcus pyogenes; conditions: Streptococcus pyogenes, UC152, 20 h, read-out: Minimum Inhibitory Concentration, S. pyogenes UC 152, Table CI
Method: as §1
as §1, with “Compounds of this invention can also be tested for in vitro antimicrobial” for “The antibacterial”, “activity” for “activity of the compounds of Formula IC was determined by”, “Jan.” for “January”, “Penna.” for “Pa.”, “(1μl” for “(1 μl”, “replicator). […] The MIC test results of selected of Formula B compounds of this invention are found in Tables B2-B9.” for “replicator).”

[11] = tested on: Citerobacter freundii; conditions: Citrobacter freundii, UC3507, 20 h, read-out: Minimum Inhibitory Concentration
Method: as §1
as §1, with “Compounds of this invention can also be tested for in vitro antimicrobial” for “The antibacterial”, “activity” for “activity of the compounds of Formula IC was determined by”, “Jan.” for “January”, “Penna.” for “Pa.”, “(1μl” for “(1 μl”, “replicator). […] The MIC test results of selected of Formula B compounds of this invention are found in Tables B2-B9.” for “replicator).”

[12] = tested on: Proteus penneri; conditions: Proteus penneri, UC9679, 20 h, read-out: Minimum Inhibitory Concentration, P. penneri UC 9679, Table CI
Method: as §1
as §1, with “Compounds of this invention can also be tested for in vitro antimicrobial” for “The antibacterial”, “activity” for “activity of the compounds of Formula IC was determined by”, “Jan.” for “January”, “Penna.” for “Pa.”, “(1μl” for “(1 μl”, “replicator). […] The MIC test results of selected of Formula B compounds of this invention are found in Tables B2-B9.” for “replicator).”

[13] = tested on: Enterobacter cloacae; conditions: UC9382, 20 h, read-out: Minimum Inhibitory Concentration
Method: Briefly, MIC values are determined in unsupplemented Mueller Hinton Agar (MHA). The compounds tested are diluted serially into molten MHA at 47° C. The agar is poured into petri dishes and allowed to harden. The various bacteria used for testing are grown overnight on MHA at 35° C. and transferred to Trypticase soy broth (TSB) until a turbidity of 0.5 McFarland standard is obtained. The bacteria are diluted one to 20 in TSB and inoculated on the plates (1 μl using a Steers replicator).
as §1, with “Compounds of this invention can also be tested for in vitro antimicrobial” for “The antibacterial”, “activity” for “activity of the compounds of Formula IC was determined by”, “Jan. […]” for “January 1983 by the National Committee for Clinical Laboratory Standards, 771 East Lancaster Avenue, Villanova, Pa. 19084, USA.”, “(1μl” for “(1 μl”

C#CC(C)(C)n1cc(C(=O)O)c(=O)c2cc(F)c(N3CCNCC3)c(F)c21.CS(=O)(=O)O [A, (+,-)-6,8-difluoro-1,4-dihydro-1-(1,1-dimethyl-2-propynyl)-4-oxo-7-(1-piperazinyl)-3-quinolinecarboxylic acid methanesulfonate]
MIC [1]: 0.5 µg/mL | MIC ([2]; UC6676, 20 h, read-out: Minimum Inhibitory Concentration, Ps. aeruginosa UC 6676, Table CI): 4 µg/mL | MIC ([2]; UC9191, 20 h, read-out: Minimum Inhibitory Concentration, Ps. aeruginosa UC 9191, Table CI): 2 µg/mL | MIC ([2]; UC12120, 20 h, read-out: Minimum Inhibitory Concentration, Ps. aeruginosa UC 12120, Table CI): 2 µg/mL | MIC [3]: 1 µg/mL | MIC [4]: 1 µg/mL | MIC [5]: 2 µg/mL | MIC ([6]; UC6674, 20 h, read-out: Minimum Inhibitory Concentration, E. coli UC 6674, Table CI): 0.25 µg/mL | MIC ([6]; UC9451, 20 h, read-out: Minimum Inhibitory Concentration, E. coli UC 9451, Table CI): 0.25 µg/mL | MIC ([6]; UC9855, 20 h, read-out: Minimum Inhibitory Concentration, E. coli UC 9855, Table CI): 0.25 µg/mL | MIC ([6]; UC9952, 20 h, read-out: Minimum Inhibitory Concentration, E. coli UC 9952, Table CI): 0.25 µg/mL | MIC ([7]; UC6685, 20 h, read-out: Minimum Inhibitory Concentration, S. aureus UC 6685, Table CI): 2 µg/mL | MIC ([7]; UC9213, 20 h, read-out: Minimum Inhibitory Concentration, S. aureus UC 9213, Table CI): 4 µg/mL | MIC ([7]; UC9218, 20 h, read-out: Minimum Inhibitory Concentration, S. aureus UC 9218, Table CI): 2 µg/mL | MIC ([7]; UC9271, 20 h, read-out: Minimum Inhibitory Concentration, S. aureus UC 9271, Table CI): 2 µg/mL | MIC [8]: 8 µg/mL | MIC [9]: 8 µg/mL | MIC [10]: 8 µg/mL | MIC [11]: 0.25 µg/mL | MIC [12]: 1 µg/mL | MIC [13]: 0.25 µg/mL
